Results from US6355799B1, “Substituted benzene compounds, process for their preparation, and herbicidal and defoliant compositions containing them” (ISK Americas Incorporated, priority 1997, dated 2002).

Legend:
Assay type in all cases: in vivo
[1] = test system: velvetleaf (Abutilon theophrasti, ABUTH); assay: Post-emerge test, greenhouse herbicide activity screening; conditions: post-emerge, 14 days after application, rating scale 0-100
Procedure, shortened: (§1)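 Compounds in acetone were track-sprayed at 15–1000 g ai/ha: pre-emergence onto soil sown the previous day, then top-watered to incorporate and later bottom-watered; post-emergence onto 2–3 leaf plants with 0.25% v/v surfactant, bottom-watered only. Ratings on a 0–100 phytotoxicity scale were taken at day 14.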

[2] = test system: barnyardgrass (Echinochloa crus-galli, ECHCG); assay: as above; conditions: post-emerge, 14 days after application, rating scale 0-100
Procedure, shortened: as §1

[3] = test system: redroot pigweed (Amaranthus retroflexus, AMARE); assay: as above; conditions: post-emerge, 14 days after application
Procedure, shortened: as §1

[4] = test system: large crabgrass (Digitaria sanguinalis, DIGSA); assay: as above; conditions: post-emerge, 14 days after application, rating scale 0-100
Procedure, shortened: as §1

[5] = test system: lambsquarters (Chenopodium album, CHEAL); assay: as above; conditions: post-emerge, 14 days after application, rating scale 0-100
Procedure, shortened: as §1

[6] = test system: common ragweed (Ambrosia artemisizfolia L., AMBEL); assay: as above; conditions: post-emerge, 14 days after application, rating scale 0-100
Procedure, shortened: as §1

[7] = test system: green foxtail (Setaria viridis, SETVI); assay: as above; conditions: post-emerge, 14 days after application, rating scale 0-100
Procedure, shortened: as §1

[8] = test system: ivyleaf morningglory (Ipomoea hederacea, IPOHE); assay: as above; conditions: post-emerge, 14 days after application, rating scale 0-100
Procedure, shortened: as §1

[9] = test system: sicklepod (Cassia obtusifolia, CASOB); assay: as above; conditions: post-emerge, 14 days after application, rating scale 0-100
Procedure, shortened: as §1

[10] = test system: upland rice (Oryza sp., var. Tebonnet, RICE); assay: Post-emerge test, crop safety; conditions: post-emerge, 14 days after application, rating scale 0-100
Procedure, shortened: (§2)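 Applied at 15–1000 g ai/ha from acetone in 187 l/ha spray volume. Post-emergence applications included 0.25% v/v non-ionic surfactant and reached plants sown 8–21 days before. Pre-emergence applications were incorporated by surface watering. Efficacy or crop damage was rated on a 0–100 scale after 14 days.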

[11] = test system: field corn (Zea mays L., var. Dekalb 535, CORN); assay: Post-emerge test, crop safety; conditions: post-emerge, 14 days after application, rating scale 0-100
Procedure, shortened: as §2

[12] = test system: redroot pigweed (Amaranthus retroflexus, AMARE); assay: Pre-emerge test, greenhouse herbicide activity screening; conditions: pre-emerge, 14 days after application, rating scale 0-100
Procedure, shortened: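 Rating: 0–100 visual injury, 14 DAA. Application: acetone, 187 l/ha, 15–1000 g ai/ha, flat-fan track sprayer with nozzle 40–45 cm above soil or canopy. Post-emerge runs used 0.25% v/v surfactant on 2–3 leaf plants.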

[13] = test system: velvetleaf (Abutilon theophrasti, ABUTH); assay: as above; conditions: pre-emerge, 14 days after application, rating scale 0-100
Procedure, shortened: as §2

[14] = test system: barnyardgrass (Echinochloa crus-galli, ECHCG); assay: as above; conditions: pre-emerge, 14 days after application, rating scale 0-100
Procedure, shortened: as §2

[15] = test system: large crabgrass (Digitaria sanguinalis, DIGSA); assay: as above; conditions: pre-emerge, 14 days after application, rating scale 0-100
Procedure, shortened: as §2

[16] = test system: lambsquarters (Chenopodium album, CHEAL); assay: as above; conditions: pre-emerge, 14 days after application, rating scale 0-100
Procedure, shortened: as §2

[17] = test system: johnsongrass (Sorghum halepense, SORHA); assay: as above; conditions: pre-emerge, 14 days after application, rating scale 0-100
Procedure, shortened: as §2

[18] = test system: common ragweed (Ambrosia artemisizfolia L., AMBEL); assay: as above; conditions: pre-emerge, 14 days after application, rating scale 0-100
Procedure, shortened: as §2

[19] = test system: green foxtail (Setaria viridis, SETVI); assay: as above; conditions: pre-emerge, 14 days after application, rating scale 0-100
Procedure, shortened: as §2

[20] = test system: ivyleaf morningglory (Ipomoea hederacea, IPOHE); assay: as above; conditions: pre-emerge, 14 days after application, rating scale 0-100
Procedure, shortened: as §2

[21] = test system: sicklepod (Cassia obtusifolia, CASOB); assay: as above; conditions: pre-emerge, 14 days after application, rating scale 0-100
Procedure, shortened: as §2

[22] = test system: upland rice (Oryza sp., var. Tebonnet, RICE); assay: Pre-emerge test, crop safety; conditions: pre-emerge, 14 days after application, rating scale 0-100
Procedure, shortened: (§3)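 Sandy loam pots; pre-emerge: sown 1 d pre-spray, surface-watered after, then bottom-watered. Post-emerge: sown 8–21 d before, 2–3 leaf stage, + 0.25% v/v NIS, bottom-watered. Acetone, 187 l/ha track spray, 15–1000 g ai/ha. 0–100 injury score, day 14.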

[23] = test system: field corn (Zea mays L., var. Dekalb 535, CORN); assay: Pre-emerge test, crop safety; conditions: pre-emerge, 14 days after application, rating scale 0-100
Procedure, shortened: as §3

[24] = 63 g ai/ha, rating scale 0-100 (0 no damage, 100 complete death)
[25] = 250 g ai/ha, rating scale 0-100

CCOc1c(Cl)cc(F)c(-n2c(=O)cc(C(F)(F)F)n(C)c2=O)c1Cl [14-62]
0: Post-emerge Herbicidal Activity ECHCG (phytotoxicity rating) ([2]; 63 g ai/ha) | Post-emerge Herbicidal Activity ECHCG (phytotoxicity rating) ([2]; 250 g ai/ha) | Post-emerge Herbicidal Activity DIGSA (phytotoxicity rating) ([4]; 63 g ai/ha) | Post-emerge Herbicidal Activity DIGSA (phytotoxicity rating) ([4]; 250 g ai/ha) | Post-emerge Herbicidal Activity SETVI (phytotoxicity rating) ([7]; 63 g ai/ha) | Post-emerge Herbicidal Activity SETVI (phytotoxicity rating) ([7]; 250 g ai/ha) | Post-emerge Herbicidal Activity CASOB (phytotoxicity rating) ([9]; 63 g ai/ha) | Post-emerge Herbicidal Activity RICE (crop damage rating) ([10]; 63 g ai/ha) | phytotoxicity rating ECHCG ([14]; 63 g ai/ha) | phytotoxicity rating DIGSA ([15]; 63 g ai/ha) | phytotoxicity rating SORHA ([17]; 63 g ai/ha) | phytotoxicity rating AMBEL ([18]; 63 g ai/ha) | phytotoxicity rating SETVI ([19]; 63 g ai/ha) | phytotoxicity rating IPOHE ([20]; 63 g ai/ha) | phytotoxicity rating IPOHE ([20]; 250 g ai/ha) | phytotoxicity rating CASOB ([21]; 63 g ai/ha) | phytotoxicity rating CASOB ([21]; 250 g ai/ha) | phytotoxicity rating RICE ([22]; 63 g ai/ha) | phytotoxicity rating CORN ([23]; 63 g ai/ha)
50: Post-emerge Herbicidal Activity AMARE (phytotoxicity rating) [3, 25] | Post-emerge Herbicidal Activity IPOHE (phytotoxicity rating) ([8]; 250 g ai/ha) | phytotoxicity rating DIGSA ([15]; 250 g ai/ha)
40: Post-emerge Herbicidal Activity ABUTH (phytotoxicity rating) ([1]; 63 g ai/ha) | Post-emerge Herbicidal Activity AMBEL (phytotoxicity rating) ([6]; 63 g ai/ha) | phytotoxicity rating AMARE ([12]; 63 g ai/ha)
5: Post-emerge Herbicidal Activity RICE (crop damage rating) ([10]; 250 g ai/ha) | Post-emerge Herbicidal Activity CORN (crop damage rating) ([11]; 63 g ai/ha) | Post-emerge Herbicidal Activity CORN (crop damage rating) ([11]; 250 g ai/ha) | phytotoxicity rating CORN ([23]; 250 g ai/ha)
80: phytotoxicity rating CHEAL ([16]; 250 g ai/ha)
20: Post-emerge Herbicidal Activity CHEAL (phytotoxicity rating) ([5]; 250 g ai/ha) | phytotoxicity rating ECHCG ([14]; 250 g ai/ha) | phytotoxicity rating CHEAL ([16]; 63 g ai/ha)
100: phytotoxicity rating AMARE ([12]; 250 g ai/ha)
10: Post-emerge Herbicidal Activity CHEAL (phytotoxicity rating) ([5]; 63 g ai/ha)
30: Post-emerge Herbicidal Activity AMARE (phytotoxicity rating) [3, 24] | Post-emerge Herbicidal Activity AMBEL (phytotoxicity rating) ([6]; 250 g ai/ha) | Post-emerge Herbicidal Activity IPOHE (phytotoxicity rating) ([8]; 63 g ai/ha) | Post-emerge Herbicidal Activity CASOB (phytotoxicity rating) ([9]; 250 g ai/ha) | phytotoxicity rating AMBEL ([18]; 250 g ai/ha)
60: Post-emerge Herbicidal Activity ABUTH (phytotoxicity rating) ([1]; 250 g ai/ha) | phytotoxicity rating SORHA ([17]; 250 g ai/ha) | phytotoxicity rating SETVI ([19]; 250 g ai/ha)
95: phytotoxicity rating ABUTH ([13]; 250 g ai/ha)
15: phytotoxicity rating ABUTH ([13]; 63 g ai/ha) | phytotoxicity rating RICE ([22]; 250 g ai/ha)

CCOC(=O)C(Cl)Cc1c(OCC)c(Cl)cc(F)c1-n1c(=O)cc(C(F)(F)F)n(C)c1=O (centres unmarked) [14-63]
15: Post-emerge Herbicidal Activity RICE (crop damage rating) ([10]; 250 g ai/ha)
5: Post-emerge Herbicidal Activity RICE (crop damage rating) ([10]; 63 g ai/ha)
30: phytotoxicity rating SETVI ([19]; 63 g ai/ha)
20: Post-emerge Herbicidal Activity AMBEL (phytotoxicity rating) ([6]; 63 g ai/ha) | phytotoxicity rating SORHA ([17]; 250 g ai/ha)
70: Post-emerge Herbicidal Activity SETVI (phytotoxicity rating) ([7]; 250 g ai/ha) | Post-emerge Herbicidal Activity IPOHE (phytotoxicity rating) ([8]; 63 g ai/ha) | Post-emerge Herbicidal Activity IPOHE (phytotoxicity rating) ([8]; 250 g ai/ha) | phytotoxicity rating ABUTH ([13]; 63 g ai/ha) | phytotoxicity rating DIGSA ([15]; 63 g ai/ha)
50: Post-emerge Herbicidal Activity AMBEL (phytotoxicity rating) ([6]; 250 g ai/ha) | Post-emerge Herbicidal Activity SETVI (phytotoxicity rating) ([7]; 63 g ai/ha) | phytotoxicity rating ECHCG ([14]; 250 g ai/ha) | phytotoxicity rating CASOB ([21]; 250 g ai/ha)
40: Post-emerge Herbicidal Activity DIGSA (phytotoxicity rating) ([4]; 63 g ai/ha)
99: Post-emerge Herbicidal Activity ECHCG (phytotoxicity rating) ([2]; 250 g ai/ha) | phytotoxicity rating AMARE ([12]; 63 g ai/ha) | phytotoxicity rating CHEAL ([16]; 250 g ai/ha) | phytotoxicity rating SETVI ([19]; 250 g ai/ha)
35: Post-emerge Herbicidal Activity CORN (crop damage rating) ([11]; 63 g ai/ha)
100: Post-emerge Herbicidal Activity ABUTH (phytotoxicity rating) ([1]; 250 g ai/ha) | Post-emerge Herbicidal Activity ECHCG (phytotoxicity rating) ([2]; 63 g ai/ha) | Post-emerge Herbicidal Activity AMARE (phytotoxicity rating) [3, 25] | Post-emerge Herbicidal Activity CHEAL (phytotoxicity rating) ([5]; 250 g ai/ha) | Post-emerge Herbicidal Activity CASOB (phytotoxicity rating) ([9]; 250 g ai/ha) | phytotoxicity rating AMARE ([12]; 250 g ai/ha) | phytotoxicity rating ABUTH ([13]; 250 g ai/ha) | phytotoxicity rating DIGSA ([15]; 250 g ai/ha)
90: Post-emerge Herbicidal Activity ABUTH (phytotoxicity rating) ([1]; 63 g ai/ha) | Post-emerge Herbicidal Activity DIGSA (phytotoxicity rating) ([4]; 250 g ai/ha)
80: Post-emerge Herbicidal Activity CHEAL (phytotoxicity rating) ([5]; 63 g ai/ha) | Post-emerge Herbicidal Activity CORN (crop damage rating) ([11]; 250 g ai/ha) | phytotoxicity rating CHEAL ([16]; 63 g ai/ha)
60: phytotoxicity rating AMBEL ([18]; 250 g ai/ha)
95: Post-emerge Herbicidal Activity AMARE (phytotoxicity rating) [3, 24] | Post-emerge Herbicidal Activity CASOB (phytotoxicity rating) ([9]; 63 g ai/ha)
0: phytotoxicity rating ECHCG ([14]; 63 g ai/ha) | phytotoxicity rating SORHA ([17]; 63 g ai/ha) | phytotoxicity rating AMBEL ([18]; 63 g ai/ha) | phytotoxicity rating IPOHE ([20]; 63 g ai/ha) | phytotoxicity rating IPOHE ([20]; 250 g ai/ha) | phytotoxicity rating CASOB ([21]; 63 g ai/ha) | phytotoxicity rating RICE ([22]; 63 g ai/ha) | phytotoxicity rating RICE ([22]; 250 g ai/ha) | phytotoxicity rating CORN ([23]; 63 g ai/ha) | phytotoxicity rating CORN ([23]; 250 g ai/ha)
